The values below come from patent US7557110B2, “Pyrazolo[1,5-A] pyrimidine derivatives” (Teijin Pharma Limited, priority 2003, dated 2009).

MAPKAP-K2, sequence (P49137 whole entry): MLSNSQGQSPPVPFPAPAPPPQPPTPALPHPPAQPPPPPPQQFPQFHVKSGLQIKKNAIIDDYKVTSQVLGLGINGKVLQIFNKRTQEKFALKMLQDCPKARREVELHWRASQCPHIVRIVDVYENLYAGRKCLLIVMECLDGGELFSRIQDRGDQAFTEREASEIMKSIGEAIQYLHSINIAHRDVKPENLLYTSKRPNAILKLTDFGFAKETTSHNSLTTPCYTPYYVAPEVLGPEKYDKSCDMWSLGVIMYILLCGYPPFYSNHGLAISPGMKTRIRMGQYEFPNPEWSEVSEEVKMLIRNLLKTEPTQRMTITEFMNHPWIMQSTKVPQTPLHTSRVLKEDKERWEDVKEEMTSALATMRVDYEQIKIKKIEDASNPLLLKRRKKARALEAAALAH

The first data set has as its target MAPKAP-K2 (Homo sapiens, UniProt P49137). Kind of data set: MAPKAP-K2 enzyme activity inhibition (33P-ATP filter plate kinase assay). Further: key: +: active; ++: more active; +++: very active. In kind it is biochemical. As to conditions: MAPKAP-K2 inhibitory activity; assays conducted at typically 1-100 μM.
With `Cc1c(N[C@H]2CC[C@H](N)CC2)nc2ccnn2c1Nc1ccccc1Cl` [Compound 15], the “activity (efficacy against MAPKAP-K2)” value is on record as “+++”.

`CCc1c(N[C@H]2CC[C@H](N)CC2)nc2ccnn2c1NCc1ccccc1Cl` [Compound 38]: the “activity (efficacy against MAPKAP-K2)” value was “++”.

On to `CCCCOc1ccc(Nc2c(CCCO)c(N[C@H]3CC[C@H](N)CC3)nc3ccnn23)cc1` [Compound 53], for which the “activity (efficacy against MAPKAP-K2)” value is “+++”.

As to `CCc1c(N[C@H]2CC[C@H](N)CC2)nc2ccnn2c1Nc1ccc(C)c(C)c1` [Compound 30], the “activity (efficacy against MAPKAP-K2)” value is “+++”.

For `Cc1c(N[C@H]2CC[C@H](N)CC2)nc2ccnn2c1Nc1ccc2c(c1)OCCO2` [Compound 126], the “activity (efficacy against MAPKAP-K2)” value is “+++”.

Consider `CCc1c(N[C@H]2CC[C@H](N)CC2)nc2ccnn2c1Nc1ccc(OC)c(C(F)(F)F)c1` [Compound 113], for which the “activity (efficacy against MAPKAP-K2)” value is recorded as “++”.

With `CCc1c(N[C@H]2CC[C@H](N)CC2)nc2ccnn2c1Nc1ccccc1C` [Compound 29], the “activity (efficacy against MAPKAP-K2)” value is “+++”.

Regarding `CCc1c(N[C@H]2CC[C@H](N)CC2)nc2ccnn2c1Nc1ccc(I)cc1` [Compound 168], the “activity (efficacy against MAPKAP-K2)” value is listed as “++”.

Take `CCc1c(N[C@H]2CC[C@H](N)CC2)nc2ccnn2c1Nc1ccccc1Cl` [Compound 16]: the “activity (efficacy against MAPKAP-K2)” value is recorded as “+++”.

With `CCc1c(N[C@H]2CC[C@H](N)CC2)nc2ccnn2c1Nc1ccc(OC)c(OC)c1` [Compound 58], the “activity (efficacy against MAPKAP-K2)” value is listed as “++”.

For the compound `Cc1c(N[C@H]2CC[C@H](N)CC2)nc2ccnn2c1Nc1cccc(O)c1` [Compound 88], the “activity (efficacy against MAPKAP-K2)” value is “+++”.

Consider `CCc1c(N[C@H]2CC[C@H](N)CC2)nc2ccnn2c1Nc1ccc(Br)cc1` [Compound 159], for which the “activity (efficacy against MAPKAP-K2)” value is “+++”.

`CCOc1ccc(Nc2c(C)c(N[C@H]3CC[C@H](N)CC3)nc3ccnn23)cc1` [Compound 32]: the “activity (efficacy against MAPKAP-K2)” value is “+++”.

For `CSc1ccc(Nc2c(C)c(N[C@H]3CC[C@H](N)CC3)nc3ccnn23)cc1` [Compound 65], the “activity (efficacy against MAPKAP-K2)” value is “+++”.

As to `C=CCc1c(N[C@H]2CC[C@H](N)CC2)nc2ccnn2c1Nc1ccccc1Cl` [Compound 17], the “activity (efficacy against MAPKAP-K2)” value is given as “+++”.

Consider `Cc1nc2ccc(Nc3c(C)c(N[C@H]4CC[C@H](N)CC4)nc4ccnn34)cc2s1` [Compound 155], for which the “activity (efficacy against MAPKAP-K2)” value is given as “+++”.

`CCc1c(N[C@H]2CC[C@H](N)CC2)nc2ccnn2c1Nc1cccc(C(N)=O)c1` [Compound 151]: the “activity (efficacy against MAPKAP-K2)” value was “++”.

Consider `CCOc1cccc(Nc2c(CC)c(N[C@H]3CC[C@H](N)CC3)nc3ccnn23)c1` [Compound 61], for which the “activity (efficacy against MAPKAP-K2)” value is on record as “+++”.

Consider `CC(C)c1c(N[C@H]2CC[C@H](N)CC2)nc2ccnn2c1Nc1ccc(F)c(Cl)c1` [Compound 115], for which the “activity (efficacy against MAPKAP-K2)” value is “+++”.

Take `Cc1c(N[C@H]2CC[C@H](N)CC2)nc2ccnn2c1Nc1ccc(F)c(Cl)c1` [Compound 10]: the “activity (efficacy against MAPKAP-K2)” value was “+++”.

The target of the next data set is CDK-2 (Homo sapiens, UniProt P24941). Kind of data set: CDK-2 enzyme activity inhibition (33P-ATP filter plate kinase assay). The format is biochemical.
Conditions: not given
An excerpt:
[General Procedure for Measurement of CDK-2 Enzyme Activity Inhibition]
The term IC50 denotes the midpoint of a concentration-inhibition curve. `Cc1c(N[C@H]2CC[C@H](N)CC2)nc2ccnn2c1Nc1ccccc1Cl` [Compound 15] registered an IC50 of less than 100 µM.

`CCc1c(N[C@H]2CC[C@H](N)CC2)nc2ccnn2c1Nc1ccccc1Cl` [Compound 16]: the IC50 is less than 100 µM.

`Cc1c(N[C@H]2CC[C@H](N)CC2)nc2ccnn2c1Nc1ccc(F)c(Cl)c1` [Compound 10] had an IC50 of less than 100 µM.

The same data set, now with this note: read-out: CDK-2 inhibition IC50.
In the case of `CCc1c(N[C@H]2CC[C@H](N)CC2)nc2ccnn2c1NCc1ccccc1Cl` [Compound 38], the IC50 is less than 100 µM.

Consider `CCCCOc1ccc(Nc2c(CCCO)c(N[C@H]3CC[C@H](N)CC3)nc3ccnn23)cc1` [Compound 53], for which the IC50 was less than 100 µM.

For `Cc1c(N[C@H]2CC[C@H](N)CC2)nc2ccnn2c1Nc1ccc2c(c1)OCCO2` [Compound 126], the IC50 is less than 100 µM.

In the case of `CCc1c(N[C@H]2CC[C@H](N)CC2)nc2ccnn2c1Nc1ccc(OC)c(C(F)(F)F)c1` [Compound 113], the IC50 is less than 100 µM.

Turning to `CCc1c(N[C@H]2CC[C@H](N)CC2)nc2ccnn2c1Nc1ccc(I)cc1` [Compound 168], the half-inhibitory concentration (IC50) was less than 100 µM.

For `CCc1c(N[C@H]2CC[C@H](N)CC2)nc2ccnn2c1Nc1ccc(OC)c(OC)c1` [Compound 58], the IC50 is less than 100 µM.

With `Cc1c(N[C@H]2CC[C@H](N)CC2)nc2ccnn2c1Nc1cccc(O)c1` [Compound 88], the IC50 is less than 100 µM.

For `CCc1c(N[C@H]2CC[C@H](N)CC2)nc2ccnn2c1Nc1ccc(Br)cc1` [Compound 159], the IC50 was less than 100 µM.

With `CCOc1ccc(Nc2c(C)c(N[C@H]3CC[C@H](N)CC3)nc3ccnn23)cc1` [Compound 32], the IC50 was less than 100 µM.

Take `CSc1ccc(Nc2c(C)c(N[C@H]3CC[C@H](N)CC3)nc3ccnn23)cc1` [Compound 65]: the IC50 is less than 100 µM.

As for `Cc1nc2ccc(Nc3c(C)c(N[C@H]4CC[C@H](N)CC4)nc4ccnn34)cc2s1` [Compound 155], the half-maximal inhibitory concentration (IC50) is less than 100 µM.

For `CCc1c(N[C@H]2CC[C@H](N)CC2)nc2ccnn2c1Nc1cccc(C(N)=O)c1` [Compound 151], the IC50 was less than 100 µM.

As to `CCOc1cccc(Nc2c(CC)c(N[C@H]3CC[C@H](N)CC3)nc3ccnn23)c1` [Compound 61], the IC50 is less than 100 µM.

Regarding `CC(C)c1c(N[C@H]2CC[C@H](N)CC2)nc2ccnn2c1Nc1ccc(F)c(Cl)c1` [Compound 115], the IC50 is less than 100 µM.

Tested on in a further data set: not given
Test: not given
Conditions: not given
As a reminder, the melting point is the temperature of the solid-liquid transition. As for `CCc1c(N[C@H]2CC[C@H](N)CC2)nc2ccnn2c1NCc1ccccc1Cl` [Compound 38], the melting point was 63 to 65 °C.

For the compound `CCCCOc1ccc(Nc2c(CCCO)c(N[C@H]3CC[C@H](N)CC3)nc3ccnn23)cc1` [Compound 53], the melting point is 116 to 118 °C.

For `CCOC(=O)c1cnn2c(Nc3ccc(F)c(Cl)c3)cc(N[C@H]3CC[C@H](N)CC3)nc12` [Compound 9], the melting point lay in the range of 221 to 223 °C.

As for `Cc1c(N[C@H]2CC[C@H](N)CC2)nc2ccnn2c1Nc1ccc2c(c1)OCCO2` [Compound 126], the melting point fell in the range of 68 to 72 °C.

As for `CCc1c(N[C@H]2CC[C@H](N)CC2)nc2ccnn2c1Nc1ccc(OC)c(C(F)(F)F)c1` [Compound 113], the melting point fell in the range of 181 to 183 °C.

Consider `CCc1c(N[C@H]2CC[C@H](N)CC2)nc2ccnn2c1Nc1ccccc1C` [Compound 29], for which the melting point was in the range of 176 to 178 °C.

In turn, `CCc1c(N[C@H]2CC[C@H](N)CC2)nc2ccnn2c1Nc1ccc(I)cc1` [Compound 168] had a melting point of 104 to 106 °C.

In the case of `CCc1c(N[C@H]2CC[C@H](N)CC2)nc2ccnn2c1Nc1ccc(OC)c(OC)c1` [Compound 58], the melting point is 181 to 185 °C.

`Cc1c(N[C@H]2CC[C@H](N)CC2)nc2ccnn2c1Nc1cccc(O)c1` [Compound 88] displayed a melting point of 145 to 150 °C.

Take `CCc1c(N[C@H]2CC[C@H](N)CC2)nc2ccnn2c1Nc1ccc(Br)cc1` [Compound 159]: the melting point fell in the range of 184 to 187 °C.

With `CSc1ccc(Nc2c(C)c(N[C@H]3CC[C@H](N)CC3)nc3ccnn23)cc1` [Compound 65], the melting point fell in the range of 185 to 187 °C.

In the case of `C=CCc1c(N[C@H]2CC[C@H](N)CC2)nc2ccnn2c1Nc1ccccc1Cl` [Compound 17], the melting point fell in the range of 153 to 155 °C.

`Cc1nc2ccc(Nc3c(C)c(N[C@H]4CC[C@H](N)CC4)nc4ccnn34)cc2s1` [Compound 155] displayed a melting point of 210 to 215 °C.

With `CCc1c(N[C@H]2CC[C@H](N)CC2)nc2ccnn2c1Nc1cccc(C(N)=O)c1` [Compound 151], the melting point is 206 to 210 °C.

`CCOc1cccc(Nc2c(CC)c(N[C@H]3CC[C@H](N)CC3)nc3ccnn23)c1` [Compound 61] displayed a melting point of 150 to 152 °C.

Turning to `CC(C)c1c(N[C@H]2CC[C@H](N)CC2)nc2ccnn2c1Nc1ccc(F)c(Cl)c1` [Compound 115], the melting point was in the range of 165 to 168 °C.

The target in another data set is CDK-1 (Homo sapiens, UniProt P06493). Kind of data set: CDK-1 enzyme activity inhibition (33P-ATP filter plate kinase assay).
CDK-1, sequence (P06493 whole entry, species assumed): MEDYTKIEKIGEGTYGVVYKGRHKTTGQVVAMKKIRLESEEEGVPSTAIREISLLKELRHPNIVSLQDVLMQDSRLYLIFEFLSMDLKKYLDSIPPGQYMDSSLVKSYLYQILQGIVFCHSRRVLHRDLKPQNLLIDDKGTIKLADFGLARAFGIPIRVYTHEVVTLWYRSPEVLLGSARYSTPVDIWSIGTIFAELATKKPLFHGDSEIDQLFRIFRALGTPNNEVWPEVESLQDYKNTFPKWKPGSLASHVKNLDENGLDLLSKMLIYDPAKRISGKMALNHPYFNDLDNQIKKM
CDK-1, sequence (P14635 whole entry partner, species assumed): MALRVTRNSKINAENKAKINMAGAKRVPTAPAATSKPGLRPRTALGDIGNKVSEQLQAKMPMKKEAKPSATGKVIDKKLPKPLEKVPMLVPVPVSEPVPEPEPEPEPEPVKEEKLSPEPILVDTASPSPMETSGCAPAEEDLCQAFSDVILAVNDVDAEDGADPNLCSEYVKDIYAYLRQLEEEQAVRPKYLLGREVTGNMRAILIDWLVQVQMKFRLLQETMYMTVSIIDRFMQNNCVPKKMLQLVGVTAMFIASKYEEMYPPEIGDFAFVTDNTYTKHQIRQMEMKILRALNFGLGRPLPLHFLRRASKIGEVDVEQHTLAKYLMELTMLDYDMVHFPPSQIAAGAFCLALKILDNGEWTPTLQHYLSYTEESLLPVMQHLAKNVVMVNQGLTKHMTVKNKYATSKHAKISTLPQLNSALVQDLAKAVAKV
Conditions: not given
The compound `Cc1c(N[C@H]2CC[C@H](N)CC2)nc2ccnn2c1Nc1ccccc1Cl` [Compound 15] displayed an IC50 of less than 100 µM.

`CCc1c(N[C@H]2CC[C@H](N)CC2)nc2ccnn2c1Nc1ccc(C)c(C)c1` [Compound 30]: the IC50 was less than 100 µM.

The compound `CCOC(=O)c1cnn2c(Nc3ccc(F)c(Cl)c3)cc(N[C@H]3CC[C@H](N)CC3)nc12` [Compound 9] came in with an IC50 of less than 100 µM.

Compound `CCc1c(N[C@H]2CC[C@H](N)CC2)nc2ccnn2c1Nc1ccccc1C` [Compound 29] registered an IC50 of less than 100 µM.

As to `CCc1c(N[C@H]2CC[C@H](N)CC2)nc2ccnn2c1Nc1ccccc1Cl` [Compound 16], the IC50 is less than 100 µM.

Regarding `CCOc1ccc(Nc2c(C)c(N[C@H]3CC[C@H](N)CC3)nc3ccnn23)cc1` [Compound 32], the IC50 was less than 100 µM.

On to `C=CCc1c(N[C@H]2CC[C@H](N)CC2)nc2ccnn2c1Nc1ccccc1Cl` [Compound 17], for which the IC50 was less than 100 µM.

`Cc1c(N[C@H]2CC[C@H](N)CC2)nc2ccnn2c1Nc1ccc(F)c(Cl)c1` [Compound 10]: the IC50 is less than 100 µM.
